Source: patent publication US8076487B2, “Pyridone derivative and herbicide” (Kumiai Chemical Industry Co., Ltd., priority 2006, dated 2011)

Assays:
Assay in all cases: Test Example 1: herbicidal effect by soil application to paddy field
Assay type in all cases: in vivo
Details in all cases: paddy field soil application; active ingredient 1,000 g per 1 hectare; wettable powder added dropwise to water surface the day after sowing; examined on the 21st day after application
[1] = tested on: heartshape false pickerelweed (Monochoria vaginalis (Burm.f.) C.Presl)
Text: (§1) Test Example 1 Test on Herbicidal Effect by Soil Application to Paddy Field In a 100 cm2 plastic pot, paddy field soil was filled. After puddling and leveling, seeds of early watergrass (Echinochloa oryzicola […] (Monochoria vaginalis ([…] Japanese bulrush (Scirpus juncoides Roxb.) were sown, and water was filled to be flooded to a water depth of 3 cm. […] Then, on the 21st day after the application to the plants grew in a greenhouse, the herbicidal effect was examined in accordance with a standard shown in Table 34. [table]

[2] = tested on: early watergrass (Echinochloa oryzicola Vasing)
Text: as §1

[3] = tested on: Japanese bulrush (Scirpus juncoides Roxb.)
Text: as §1

SMILES | herbicidal effect, Monochoria vaginalis (Burm. f.) C. Presl [1] | herbicidal effect, Echinochloa oryzicola Vasing [2] | herbicidal effect, Scirpus juncoides Roxb. [3]
O=C(Nn1c(C(F)(F)F)ccc(C(=O)C2=C(O)CCCC2=O)c1=O)OCc1ccccc1 [I-196] | 5 (90% or more of herbicidal effect and crop phytotoxicity) | 5 (90% or more of herbicidal effect and crop phytotoxicity) | 4 (70 to less than 90% of herbicidal effect and crop phytotoxicity)
CCCS(=O)(=O)Oc1c(C(=O)c2ccc(C(F)(F)F)n(CC(C)OCc3ccccc3)c2=O)cnn1C (stereo not drawn) [IV-49] | 5 (90% or more of herbicidal effect and crop phytotoxicity) | 5 (90% or more of herbicidal effect and crop phytotoxicity) | 3 (50 to less than 70% of herbicidal effect and crop phytotoxicity)
O=C1CCCC(O)=C1C(=O)c1ccc(C(F)(F)F)n(Cc2ccccc2[N+](=O)[O-])c1=O [I-115] | 5 (90% or more of herbicidal effect and crop phytotoxicity) | 5 (90% or more of herbicidal effect and crop phytotoxicity) | 5 (90% or more of herbicidal effect and crop phytotoxicity)
Cn1ncc(C(=O)c2ccc(C(F)(F)F)n(C)c2=O)c1OCc1ccc(Cl)cc1 [IV-191] | 5 (90% or more of herbicidal effect and crop phytotoxicity) | 5 (90% or more of herbicidal effect and crop phytotoxicity) | 5 (90% or more of herbicidal effect and crop phytotoxicity)
O=C1CCCC(O)=C1C(=O)c1ccc(C(F)(F)F)n(Cc2ccc([N+](=O)[O-])cc2)c1=O [I-117] | 5 (90% or more of herbicidal effect and crop phytotoxicity) | 5 (90% or more of herbicidal effect and crop phytotoxicity) | 5 (90% or more of herbicidal effect and crop phytotoxicity)
COCn1c(C(F)(F)F)ccc(C(=O)C2=C(O)CCCC2=O)c1=O [I-30] | 5 (90% or more of herbicidal effect and crop phytotoxicity) | 3 (50 to less than 70% of herbicidal effect and crop phytotoxicity) | 3 (50 to less than 70% of herbicidal effect and crop phytotoxicity)
CCCn1ncc(C(=O)c2ccc(C(F)(F)F)n(C)c2=O)c1O [IV-213] | 5 (90% or more of herbicidal effect and crop phytotoxicity) | 5 (90% or more of herbicidal effect and crop phytotoxicity) | 5 (90% or more of herbicidal effect and crop phytotoxicity)
Cn1c(C(F)(F)F)ccc(C(=O)C2=C(Sc3ccccc3)CCCC2=O)c1=O [II-8] | 5 (90% or more of herbicidal effect and crop phytotoxicity) | 5 (90% or more of herbicidal effect and crop phytotoxicity) | 5 (90% or more of herbicidal effect and crop phytotoxicity)
CCCS(=O)(=O)Oc1c(C(=O)c2ccc(C(F)(F)F)n(CCCS(C)(=O)=O)c2=O)cnn1C [IV-61] | 5 (90% or more of herbicidal effect and crop phytotoxicity) | 5 (90% or more of herbicidal effect and crop phytotoxicity) | 5 (90% or more of herbicidal effect and crop phytotoxicity)
Cn1c(C(F)(F)F)ccc(C(=O)C2=C(Sc3ccccc3Cl)CCCC2=O)c1=O [II-11] | 5 (90% or more of herbicidal effect and crop phytotoxicity) | 5 (90% or more of herbicidal effect and crop phytotoxicity) | 5 (90% or more of herbicidal effect and crop phytotoxicity)
CCCS(=O)(=O)Oc1c(C(=O)c2ccc(Cl)n(C)c2=O)cnn1C [IV-242] | 4 (70 to less than 90% of herbicidal effect and crop phytotoxicity) | 5 (90% or more of herbicidal effect and crop phytotoxicity) | 5 (90% or more of herbicidal effect and crop phytotoxicity)
Cn1ncc(C(=O)c2ccc(C(F)(F)F)n(CC[S+](C)[O-])c2=O)c1O (stereo not drawn) [IV-52] | 4 (70 to less than 90% of herbicidal effect and crop phytotoxicity) | 4 (70 to less than 90% of herbicidal effect and crop phytotoxicity) | 4 (70 to less than 90% of herbicidal effect and crop phytotoxicity)
Cc1cc(C)c(C(=O)Oc2c(C(=O)c3ccc(C(F)(F)F)n(CC4CCCO4)c3=O)cnn2C)c(C)c1 (stereo not drawn) [IV-135] | 5 (90% or more of herbicidal effect and crop phytotoxicity) | 5 (90% or more of herbicidal effect and crop phytotoxicity) | 5 (90% or more of herbicidal effect and crop phytotoxicity)
O=C1CCCC(O)=C1C(=O)c1ccc(C(F)(F)F)n(CS(=O)(=O)C2CCCCC2)c1=O [I-62] | 5 (90% or more of herbicidal effect and crop phytotoxicity) | 5 (90% or more of herbicidal effect and crop phytotoxicity) | 4 (70 to less than 90% of herbicidal effect and crop phytotoxicity)
COc1ccc(Cn2c(C(F)(F)F)ccc(C(=O)C3=C(O)CCCC3=O)c2=O)cc1 [I-122] | 5 (90% or more of herbicidal effect and crop phytotoxicity) | 5 (90% or more of herbicidal effect and crop phytotoxicity) | 5 (90% or more of herbicidal effect and crop phytotoxicity)
Cn1ncc(C(=O)c2ccc(C(F)(F)F)n(C)c2=O)c1OCc1ccc(C(C)(C)C)cc1 [IV-192] | 5 (90% or more of herbicidal effect and crop phytotoxicity) | 5 (90% or more of herbicidal effect and crop phytotoxicity) | 5 (90% or more of herbicidal effect and crop phytotoxicity)
CC(CCn1c(C(F)(F)F)ccc(C(=O)C2=C(O)C(C)CCC(C)C2=O)c1=O)=C(F)F (stereo not drawn) [II-27] | 5 (90% or more of herbicidal effect and crop phytotoxicity) | 5 (90% or more of herbicidal effect and crop phytotoxicity) | 5 (90% or more of herbicidal effect and crop phytotoxicity)
Cn1c(C(F)(F)F)ccc(C(=O)C2=C(Sc3cccc(Cl)c3)CCCC2=O)c1=O [II-12] | 5 (90% or more of herbicidal effect and crop phytotoxicity) | 5 (90% or more of herbicidal effect and crop phytotoxicity) | 5 (90% or more of herbicidal effect and crop phytotoxicity)
COCCCn1c(C(F)(F)F)ccc(C(=O)C2=C(Sc3ccccc3)CCCC2=O)c1=O [II-30] | 5 (90% or more of herbicidal effect and crop phytotoxicity) | 5 (90% or more of herbicidal effect and crop phytotoxicity) | 5 (90% or more of herbicidal effect and crop phytotoxicity)
CCCS(=O)(=O)Oc1c(C(=O)c2ccc(C(F)(F)F)n(CC[S+](C)[O-])c2=O)cnn1C (stereo not drawn) [IV-53] | 4 (70 to less than 90% of herbicidal effect and crop phytotoxicity) | 4 (70 to less than 90% of herbicidal effect and crop phytotoxicity) | 4 (70 to less than 90% of herbicidal effect and crop phytotoxicity)
C=CCn1ncc(C(=O)c2ccc(C(F)(F)F)n(C)c2=O)c1OCc1ccccc1 [IV-228] | 5 (90% or more of herbicidal effect and crop phytotoxicity) | 5 (90% or more of herbicidal effect and crop phytotoxicity) | 5 (90% or more of herbicidal effect and crop phytotoxicity)
Cc1ccc(SC2=C(C(=O)c3ccc(C(F)(F)F)n(C)c3=O)C(=O)CCC2)cc1 [II-9] | 5 (90% or more of herbicidal effect and crop phytotoxicity) | 5 (90% or more of herbicidal effect and crop phytotoxicity) | 5 (90% or more of herbicidal effect and crop phytotoxicity)
CCCS(=O)(=O)Oc1c(C(=O)c2ccc(C(F)(F)F)n(CCCSC)c2=O)cnn1C [IV-57] | 5 (90% or more of herbicidal effect and crop phytotoxicity) | 5 (90% or more of herbicidal effect and crop phytotoxicity) | 2 (30 to less than 50% of herbicidal effect and crop phytotoxicity)
